Laboratory results: paper PMC7607624 (Journal of nuclear medicine : official publication, Society …, 2013)

Assays:
[1] = set-up: species or system human; details: in vivo
[2] = set-up: species or system human; details: in vivo, iv
[3] = human, in vivo
[4] = set-up: species or system human; details: in vivo; remark: listed apart in the source
[5] = set-up: species or system human; details: in vivo; remark: listed apart in the source

- Normalized number of disintegrations, Brain [1]: 0.0089±0.0038 MBq-h/MBq administered
- Normalized number of disintegrations, Breasts [1]: 0.015±0.0047 MBq-h/MBq administered
- Normalized number of disintegrations, Heart Contents [1]: 0.026±0.0036 MBq-h/MBq administered
- Normalized number of disintegrations, Kidneys [1]: 0.059±0.017 MBq-h/MBq administered
- Normalized number of disintegrations, Liver [1]: 0.064±0.024 MBq-h/MBq administered
- Normalized number of disintegrations, Remainder [1]: 0.82±0.14 MBq-h/MBq administered
- Normalized number of disintegrations, Spleen [1]: 0.0090±0.0024 MBq-h/MBq administered
- Normalized number of disintegrations, Testes [1]: 0.0057±0.0017 MBq-h/MBq administered
- Normalized number of disintegrations, Urinary Bladder Wall (1.0-hr) [1]: 0.29±0.033 MBq-h/MBq administered
- Normalized number of disintegrations, Urinary Bladder Wall (4.8-hr) [1]: 1.1±0.13 MBq-h/MBq administered
- clearance half-time of activity from blood pool / plasma ([2]; human): ~ 30 minutes
- percentage of plasma-borne activity in the form of 18F-CP-18 [2]: 99%
- bladder uptake (percent administered activity) [3]: 16-27%
- kidney uptake (percent administered activity) [3]: 3.5-11%
- liver uptake (percent administered activity) [3]: 3.2-5.7%
- mean SUV, bladder [3]: approximately 65
- mean SUV, heart [3]: ~1.5
- mean SUV, kidneys [3]: ~6
- mean SUV, liver [3]: ~1.5
- renal system (kidneys and bladder together) uptake [3]: 22-31%
- Estimated organ dose per unit administered activity, Brain [4]: 2.4±0.6 μGy/MBq
- Estimated organ dose per unit administered activity, Breasts [4]: 7.7±3.6 μGy/MBq
- Estimated organ dose per unit administered activity, Heart Wall [4]: 10±0.8 μGy/MBq
- Estimated organ dose per unit administered activity, Kidneys [4]: 39±10 μGy/MBq
- Estimated organ dose per unit administered activity, Thymus [4]: 4.8±0.7 μGy/MBq
- Estimated organ dose per unit administered activity, Thyroid [4]: 4.2±0.7 μGy/MBq
- adult female phantom doses, higher than adult male phantom [4]: 20–34%
- parent tracer in urine [5]: 21%
Substance: (18S,21S,24S,27S,30S)-27-(2-carboxyethyl)-21-(carboxymethyl)-30-((2S,3R,4R,5R,6S)-6-((2-(4-(3-[F18]fluoropropyl)-1H-1,2,3-triazol-1-yl)acetamido)methyl)-3,4,5-trihydroxytetrahydro-2H-pyran-2-carboxamido)-24-isopropyl-18-methyl-17,20,23,26,29-pentaoxo-4,7,10,13-tetraoxa-16,19,22,25,28-pentaazadotriacontane-1,32-dioic acid [18F-CP-18]
- crossing of the blood-brain barrier [3]: did not appreciably cross the blood-brain barrier
